Key:
ERRγ = format: cell-based; conditions: for Functional Assay, Cpds/Ref 5182: activity relative to reference compound GSK5182; for Functional Assay at 10 μM (% of control), Cpds: AD293, 24 hours
Protocol: AD293 was cultured in a 24-well plate for 24 hours, using a DMEM High glucose culture medium (Hyclone, USA) to which 0.5% FBS was added at a concentration of 9×10^4/well. The culture medium was replaced with a DMEM High glucose culture medium to which 10% FBS was added, treatment was performed with a mixture of a TransIT-LT1 transfection reagent (Minis, USA) and pCMX-Gal4-ERRγ, pFR-luciferase reporter plasmid, pCMV-β-gal, and culturing was performed for 24 hours. Thereafter, a luciferase activity assay and a β-gal assay were performed, respectively, with a lysate obtained after treatment with the arylethene derivative of the present invention for 24 hours. All results were derived from three or more independent repetitive experiments.

[1] = format: in vivo; conditions: rat, IV 1 mg/kg
Protocol: An oral administration group fasts the day before.
Blood of each animal is collected at 0 hour.
Into a tail vein of an intravenous administration group (IV), a drug is injected at a dose of 1 mg/kg (syringe).
To an oral administration group (PO), a drug is orally administered at a dose of 10 mg/kg (oral zondec)
After administration, blood of the intravenous administration group was collected through a jugular vein 8 times at 0.08, 0.25, 0.5, 1, 2, 4, 6, and 8 hours. One collected blood amount is 400 to 500 ul.
After administration, blood of the oral administration group was collected through a jugular vein 6 times at 0.25, 0.5, 1, 4, 6 and 8 hours. One collected blood amount is 400 to 500 ul.
Supernatant plasma is collected by a centrifuge.
The supernatant plasma was injected into a LC-MS/MS system and the drug is analyzed.

CYP1A2 = CYP1A2 (Homo sapiens (Human), UniProt P05177); experiment: Cytochrome P450 activity inhibition, CYP1A2; format: in vitro ADME; conditions: 10 μM, human liver microsomes
Text: (§1) 1) Cytochrome P450 (CYP450) Activity Inhibition Evaluation

CYP2C9 = CYP2C9 (Homo sapiens (Human), UniProt P11712); experiment: Cytochrome P450 activity inhibition, CYP2C9; format: in vitro ADME; conditions: 10 μM, human liver microsomes
Text: as §1

CYP2C19 = CYP2C19 (Homo sapiens (Human), UniProt P33261); experiment: Cytochrome P450 activity inhibition, CYP2C19; format: in vitro ADME; conditions: 10 μM, human liver microsomes
Text: as §1

CYP2D6 = CYP2D6 (Homo sapiens (Human), UniProt P10635); experiment: Cytochrome P450 activity inhibition, CYP2D6; format: in vitro ADME; conditions: 10 μM, human liver microsomes
Text: as §1

CYP3A4 = CYP3A4 (Homo sapiens (Human), UniProt P08684); experiment: Cytochrome P450 activity inhibition, CYP3A4; format: in vitro ADME; conditions: 10 μM, human liver microsomes
Protocol: Thereafter, in order to complete the reaction, an acetonitrile solution containing an internal standard material (Terfenadine) was added thereto, centrifugation (14,000 rpm, 4° C.) was performed for 5 minutes, and a supernatant was injected into a LC-MS/MS system to analyze the metabolites of the substrate drug, thereby evaluating drug metabolism enzyme inhibition by the arylethene derivative of the present invention.

[2] = format: in vitro ADME, human; conditions: 1 μM, 30 minutes, 37° C.
Protocol: 2) Microsomal Stability Evaluation
Four liver microsomes (Human, Dog, Rat, Mouse 0.5 mg/ml) with a 0.1 M phosphate buffer solution (pH 7.4), and the arylethene derivative of the present invention were added to a concentration of 1 μM, culturing was performed at 37° C. for 5 minutes in advance, a NADPH regeneration system solution was added thereto, and culturing was performed at 37° C. for 30 minutes. Thereafter, in order to complete the reaction, an acetonitrile solution containing an internal standard material (chlorpropamide) was added thereto, centrifugation (14,000 rpm, 4° C.) was performed for 5 minutes, and a supernatant was injected into a LC-MS/MS system to analyze the substrate drug, thereby evaluating metabolism stability to the arylethene derivative of the present invention.

CYP2C19, sequence (P33261 whole entry): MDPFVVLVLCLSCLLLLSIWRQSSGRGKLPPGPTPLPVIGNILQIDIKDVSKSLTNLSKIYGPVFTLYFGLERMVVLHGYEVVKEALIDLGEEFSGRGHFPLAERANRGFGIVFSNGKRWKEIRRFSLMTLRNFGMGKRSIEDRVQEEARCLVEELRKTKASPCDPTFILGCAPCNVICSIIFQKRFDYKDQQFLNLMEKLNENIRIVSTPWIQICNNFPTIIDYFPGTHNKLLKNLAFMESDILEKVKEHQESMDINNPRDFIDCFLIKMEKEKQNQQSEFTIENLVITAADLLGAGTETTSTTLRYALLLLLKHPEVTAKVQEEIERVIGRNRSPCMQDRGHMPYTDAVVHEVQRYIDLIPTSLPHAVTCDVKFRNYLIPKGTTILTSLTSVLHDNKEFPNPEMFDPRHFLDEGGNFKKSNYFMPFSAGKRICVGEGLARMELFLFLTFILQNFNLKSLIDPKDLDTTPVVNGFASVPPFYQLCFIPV
CYP2C9, sequence (P11712 whole entry): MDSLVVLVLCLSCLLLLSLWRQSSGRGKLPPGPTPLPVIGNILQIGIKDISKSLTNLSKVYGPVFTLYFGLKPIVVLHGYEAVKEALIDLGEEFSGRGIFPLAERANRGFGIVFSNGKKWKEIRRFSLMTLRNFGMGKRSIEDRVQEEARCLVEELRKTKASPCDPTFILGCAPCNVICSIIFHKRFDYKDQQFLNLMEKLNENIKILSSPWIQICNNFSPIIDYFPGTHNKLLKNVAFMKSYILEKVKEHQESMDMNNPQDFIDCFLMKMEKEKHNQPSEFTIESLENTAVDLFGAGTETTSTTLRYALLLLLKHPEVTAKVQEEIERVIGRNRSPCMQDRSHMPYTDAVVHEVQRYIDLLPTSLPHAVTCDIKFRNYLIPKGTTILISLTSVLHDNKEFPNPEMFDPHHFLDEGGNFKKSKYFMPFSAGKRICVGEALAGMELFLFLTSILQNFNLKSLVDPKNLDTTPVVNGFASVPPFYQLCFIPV
CYP1A2, sequence (P05177 whole entry): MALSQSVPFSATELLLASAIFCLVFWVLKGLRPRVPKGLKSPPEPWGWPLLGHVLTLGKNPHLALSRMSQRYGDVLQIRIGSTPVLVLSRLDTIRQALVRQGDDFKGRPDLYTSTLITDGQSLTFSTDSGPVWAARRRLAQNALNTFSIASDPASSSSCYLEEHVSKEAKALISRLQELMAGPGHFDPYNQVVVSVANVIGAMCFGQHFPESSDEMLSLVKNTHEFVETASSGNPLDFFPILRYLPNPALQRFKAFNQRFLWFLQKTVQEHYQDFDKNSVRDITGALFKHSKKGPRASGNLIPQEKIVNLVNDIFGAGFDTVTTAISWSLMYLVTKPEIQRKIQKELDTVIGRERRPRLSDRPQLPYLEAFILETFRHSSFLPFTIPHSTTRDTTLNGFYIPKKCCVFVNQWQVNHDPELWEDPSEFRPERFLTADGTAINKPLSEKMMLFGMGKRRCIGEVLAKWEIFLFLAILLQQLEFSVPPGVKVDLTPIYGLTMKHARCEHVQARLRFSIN
CYP3A4, sequence (P08684 whole entry): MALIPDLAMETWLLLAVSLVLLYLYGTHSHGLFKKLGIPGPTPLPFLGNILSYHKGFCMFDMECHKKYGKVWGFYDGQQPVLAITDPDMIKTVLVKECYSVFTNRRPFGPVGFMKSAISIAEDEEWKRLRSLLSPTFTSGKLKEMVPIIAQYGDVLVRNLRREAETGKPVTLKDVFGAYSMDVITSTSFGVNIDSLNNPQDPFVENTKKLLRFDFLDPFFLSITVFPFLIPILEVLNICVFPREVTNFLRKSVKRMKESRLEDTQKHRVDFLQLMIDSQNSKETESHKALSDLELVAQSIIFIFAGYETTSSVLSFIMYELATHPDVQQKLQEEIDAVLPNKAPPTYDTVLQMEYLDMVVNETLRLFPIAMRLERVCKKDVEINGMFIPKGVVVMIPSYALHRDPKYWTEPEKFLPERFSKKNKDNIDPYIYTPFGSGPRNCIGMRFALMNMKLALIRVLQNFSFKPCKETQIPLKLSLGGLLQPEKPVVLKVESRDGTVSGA
CYP2D6, sequence (P10635 whole entry): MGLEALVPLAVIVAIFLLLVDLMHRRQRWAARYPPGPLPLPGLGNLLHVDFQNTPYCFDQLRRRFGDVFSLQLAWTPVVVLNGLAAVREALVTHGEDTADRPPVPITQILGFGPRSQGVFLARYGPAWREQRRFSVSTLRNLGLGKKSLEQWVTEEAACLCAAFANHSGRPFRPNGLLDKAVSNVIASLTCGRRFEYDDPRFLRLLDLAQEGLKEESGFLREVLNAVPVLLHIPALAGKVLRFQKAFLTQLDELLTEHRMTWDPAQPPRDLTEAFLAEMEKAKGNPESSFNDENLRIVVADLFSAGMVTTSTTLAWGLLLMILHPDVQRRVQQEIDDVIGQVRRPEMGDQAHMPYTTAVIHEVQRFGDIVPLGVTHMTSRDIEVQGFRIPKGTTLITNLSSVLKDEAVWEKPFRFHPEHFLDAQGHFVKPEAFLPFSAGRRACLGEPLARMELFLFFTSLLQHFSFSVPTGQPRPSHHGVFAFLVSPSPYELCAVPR

Row | Compound | Functional Assay, Cpds/Ref 5182 (ERRγ) | CYP inhibition (% of control) 1A2 (CYP1A2) | CYP inhibition (% of control) 2C9 (CYP2C9) | CYP inhibition (% of control) 2C19 (CYP2C19) | CYP inhibition (% of control) 2D6 (CYP2D6) | CYP inhibition (% of control) 3A4 (CYP3A4) | also measured
1 | CN1CCC[C@@H]1CCOc1ccc(/C(=C(/CCCO)c2ccccc2)c2ccc(O)cc2)cc1 [Compound 6k] | 0.79 |  |  |  |  |  | 
2 | CC(C)N1CCC(c2ccc(/C(=C(/CCCO)c3ccccc3)c3ccc(N)cc3)cc2)CC1 [Compound 26c] | 4.80 |  |  |  |  |  | 
3 | O=C(CN1CCCCC1)Nc1ccc(/C(=C(/CCCO)c2ccccc2)c2ccc(O)cc2)cc1 [Compound 44, (E)-N-(4-(5-hydroxy-1-(4-hydroxyphenyl)-2-phenylpent-1-en-1-yl)phenyl)-2-(piperidin-1-yl)acetamide] |  |  |  |  |  |  | AUCINF [1]: 0.34 μMh; AUCall [1]: 0.28 μMh; Cl(observed)/F [1]: 139 mL/min/kg; Vss [1]: 52.8 L/kg; t1/2 [1]: 4.4 h
4 | CN1CCN(c2ccc(/C(=C(/CCCOC(=O)C(C)(C)C)c3ccccc3)c3ccc(O)cc3)cc2)CC1 [Compound 28f] | 0.98 |  |  |  |  |  | Functional Assay at 10 μM (% of control), Cpds (ERRγ): 4 % of control
5 | CN1CCCC1CCOc1ccc(/C(=C(/CCCO)c2ccccc2)c2ccc(O)cc2)cc1 (centres unmarked) [Compound 6g] | 1.60 | 97.8 % of control | 75.4 % of control | 81.8 % of control | 81.7 % of control | 83.7 % of control | 
6 | Cc1ccc(/C(=C(\CCCO)c2ccccc2)c2ccc(N3CCN(C)CC3)cc2)cc1 [Compound 18f] | 0.82 | >100 % of control |  |  |  |  | 
7 | CN1CCN(c2ccc(/C(=C(/CCCO)c3ccccc3)c3ccc([N+](=O)[O-])cc3)cc2)CC1 [Compound 18c] | 0.42 |  |  | 80 % of control |  |  | 
8 | CCN1CCN(c2ccc(/C(=C(/CCCO)c3ccccc3)c3ccc(O)cc3)cc2)CC1 [Compound 18i] | 0.97 |  |  |  |  |  | 
9 | CN1CCN(c2ccc(/C(=C(/CCCO)c3ccccc3)c3ccc(O)cc3)cc2)CC1 [Compound 18d] | 0.97 | 88 % of control |  |  |  | 64 % of control | 
10 | OCCC/C(=C(\c1ccc(Br)cc1)c1ccc(N2CCNCC2)cc1)c1ccccc1 [Compound 20a, (E)-5-(4-bromophenyl)-4-phenyl-5-(4-(piperazin-1-yl)phenyl)pent-4-en-1-ol] |  | 85 % of control | 76 % of control | 61.9 % of control | 70.7 % of control | 55 % of control | 
11 | OCCC/C(=C(\c1ccc(O)cc1)c1ccc(OCCN2CCCC2)cc1)c1ccccc1 [Compound 6e] |  | 79.6 % of control | 51.6 % of control | 64.1 % of control | 80.6 % of control | 68.1 % of control | 
12 | CC(C)N1CCN(c2ccc(/C(=C(/CCCO)c3ccccc3)c3ccc(Br)cc3)cc2)CC1 [Compound 18h] |  |  |  |  |  |  | MS (Microsomal Stability) (%) human [2]: >100%
13 | CC(C)N1CCC(c2ccc(/C(=C(/CCCO)c3ccccc3)c3cccc(O)c3)cc2)CC1 [Compound 22h] |  | >100 % of control |  | >100 % of control |  |  | 
14 | CCN1CCC(c2ccc(C(=C(CCCO)c3ccccc3)c3cccc(O)c3)cc2)CC1 [Compound 22ae] |  |  | >100 % of control | >100 % of control |  |  | 
15 | Cc1ccc(/C(=C(\CCCO)c2ccccc2)c2ccc(C3CN(C(C)C)C3)cc2)cc1 [Compound 22e] | 0.61 |  |  |  |  |  | 
16 | CN1CCCC1CCOc1ccc(/C(=C(/CCCO)c2ccccc2)c2ccc(Br)cc2)cc1 (centres unmarked) [Compound 13d] |  | >100 % of control | 97 % of control | 89.4 % of control | >100 % of control | 90.2 % of control | 
17 | CC(C)(C)OC(=O)N1CC(c2ccc(/C(=C(/CCCO)c3ccccc3)c3ccc(O)cc3)cc2)C1 [Compound 18t, tert-butyl (E)-3-(4-(5-hydroxy-1-(4-hydroxyphenyl)-2-phenylpent-1-en-1-yl)phenyl)azetidine-1-carboxylate] |  | 100 % of control | 83 % of control | 93 % of control | 98 % of control | 106 % of control | 
18 | OCCC/C(=C(\c1ccc(O)cc1)c1ccc(C2=CCN(C3CC3)CC2)cc1)c1ccccc1 [Compound 22j] |  |  | 88 % of control |  |  | 85 % of control | 

Row | Compound | Functional Assay, Cpds/Ref 5182 (ERRγ) | CYP inhibition (% of control) 1A2 (CYP1A2) | CYP inhibition (% of control) 2C9 (CYP2C9) | CYP inhibition (% of control) 2C19 (CYP2C19) | CYP inhibition (% of control) 2D6 (CYP2D6) | CYP inhibition (% of control) 3A4 (CYP3A4) | also measured
19 | CC(C)N1CCN(c2ccc(/C(=C(/CCCO)c3ccccc3)c3ccc(OS(C)(=O)=O)cc3)cc2)CC1 [Compound 28a, (E)-4-(5-hydroxy-1-(4-(4-isopropylpiperazin-1-yl)phenyl)-2-phenylpent-1-en-1-yl)phenyl methanesulfonate] | 1.20 |  |  |  |  |  | 
20 | CN1CCN(c2ccc(/C(=C(/CCCOC(=O)C(C)(C)C)c3ccccc3)c3ccc(OC(=O)C(C)(C)C)cc3)cc2)CC1 [Compound 28g] |  |  |  |  |  |  | Functional Assay at 10 μM (% of control), Cpds (ERRγ): 5.1 % of control
21 | CN1CCC[C@H]1CCOc1ccc(/C(=C(/CCCO)c2ccccc2)c2ccc(O)cc2)cc1 [Compound 6j] | 0.77 | 98.7 % of control | 85.6 % of control | 89.1 % of control | 85.2 % of control | 74.6 % of control | 
22 | OCCC/C(=C(\c1ccc(O)cc1)c1ccc(OCCN2CCOCC2)cc1)c1ccccc1 [Compound 6c] |  | 91.9 % of control | 77.9 % of control | 81.6 % of control | 96.4 % of control | 81.3 % of control | 
23 | OCCC/C(=C(\c1ccc(O)cc1)c1ccc(OCCN2CCC3(CCNC3)C2)cc1)c1ccccc1 (centres unmarked) [Compound 39, (Z)-4-(1-(4-(2-(2,7-diazaspiro[4.4]nonan-2-yl)ethoxy)phenyl)-5-hydroxy-2-phenylpent-1-en-1-yl)phenol] |  | 82.5 % of control | 74.4 % of control | 73.9 % of control | 67.8 % of control | 59 % of control | 
24 | OCCC/C(=C(\c1ccc(O)cc1)c1ccc(N2CCN(C3CCC3)CC2)cc1)c1ccccc1 [Compound 22q] |  |  |  |  |  | 81 % of control | 
25 | OCCC/C(=C(\c1ccc(O)cc1)c1ccc(C2CN(C3CC3)C2)cc1)c1ccccc1 [Compound 22d] | 0.62 | >100 % of control | >100 % of control | >100 % of control |  |  | 
26 | CN1CCC[C@@H]1COc1ccc(/C(=C(/CCCO)c2ccccc2)c2ccc(O)cc2)cc1 [Compound 6i] |  | 98.1 % of control | 86.7 % of control | 82.6 % of control | 93.6 % of control | 79.4 % of control | 
27 | CN1CCC(c2ccc(/C(=C(/CCCO)c3ccccc3)c3cccc(O)c3)cc2)CC1 [Compound 22ac] |  | >100 % of control | >100 % of control | >100 % of control |  | 85 % of control | 
28 | OCCC/C(=C(\c1ccc(O)cc1)c1ccc(OCCN2CCC[C@@H]2CO)cc1)c1ccccc1 [Compound 38c] | 0.99 |  |  |  |  |  | 
29 | CC(C)N1CCN(c2ccc(/C(=C(/CCCO)c3ccccc3)c3ccc([N+](=O)[O-])cc3)cc2)CC1 [Compound 18g] | 0.84 |  |  |  |  |  | 
30 | OCCC/C(=C(/c1ccc(C2=CCN(C3CC3)CC2)cc1)c1cccc(O)c1)c1ccccc1 [Compound 22l] |  |  |  | 97 % of control | 99 % of control |  | 
31 | OCCC/C(=C(\c1ccc(O)cc1)c1ccc(N2CCNCC2)cc1)c1ccccc1 [Compound 20c] | 0.93 |  |  |  |  |  | 
32 | CN1CCN(c2ccc(/C(=C(/CCCO)c3ccccc3)c3ccc(N)cc3)cc2)CC1 [Compound 26a, (Z)-5-(4-aminophenyl)-5-(4-(4-methylpiperazin-1-yl)phenyl)-4-phenylpent-4-en-1-ol] | 0.84 | >100 % of control | 53.2 % of control | 89 % of control | 85.5 % of control | 75.4 % of control | 
33 | CC(C)(C)OC(=O)N1CCN(c2ccc(/C(=C(/CCCO)c3ccccc3)c3ccc(Br)cc3)cc2)CC1 [Compound 18n] | 0.82 |  |  |  |  |  | 
34 | C[Si](C)(CN1CCCC1)c1ccc(/C(=C(/CCCO)c2ccccc2)c2ccc(O)cc2)cc1 [Compound 42c] | 0.89 |  |  |  |  |  | Functional Assay at 10 μM (% of control), Cpds (ERRγ): 2.6 % of control
35 | OCCC/C(=C(\c1ccc(O)cc1)c1ccc(C2CCN(C3CC3)CC2)cc1)c1ccccc1 [Compound 22i] |  |  |  |  |  |  | MS (Microsomal Stability) (%) human [2]: 36.0%

Reference: patent publication US11285226B2, “Aryl ethene derivative and pharmaceutical composition containing same as active ingredient” (priority 2016, dated 2022)
